Reference: ChEMBL document CHEMBL1127251, “New neplanocin analogues. III. 6R-configuration is essential for the antiviral activity of 6-C-methyl-3-deazaneplanocin a's” (Bioorg Med Chem Lett, 1994)
In brackets after ≈: the same amount, converted by molar mass.

Legend:
[1] = Ratio of cytotoxicity, IC50(growing) to antiviral activity (ED50) was determined; assay type: functional
Vero [2] = experiment: Cytotoxic effect on host cells during stationary phase of virus in vero cell cultures using MTT method; assay type: functional, cell-based; conditions: Chlorocebus sabaeus
Vero [3] = experiment: In vitro anti-vesicular stomatitis virus activity in vero cell cultures; assay type: functional; conditions: Chlorocebus sabaeus, read-out: ED50 (the source's name)
Vero [4] = experiment: Cytotoxic effect on host cells during growth phase of virus in vero cell cultures using MTT method; assay type: functional, cell-based; conditions: Chlorocebus sabaeus

Compound | Selectivity index [1] | IC50 (Vero [2]) | EC50 (Vero [3]) | IC50 (Vero [4])
C[C@@H](O)C1=C[C@@H](n2cnc3c(N)ncnc32)[C@H](O)[C@@H]1O | 9.2 | > 500 µg/mL | 0.24 µg/mL (≈ 0.866 µM) | 2.2 µg/mL (≈ 7.93 µM)
Nc1nccc2c1ncn2[C@@H]1C=C(CO)[C@@H](O)[C@H]1O | 2.3 | > 500 µg/mL | 0.24 µg/mL (≈ 0.915 µM) | 0.55 µg/mL (≈ 2.1 µM)
Nc1ncnc2c1ncn2[C@@H]1C=C(CO)[C@@H](O)[C@H]1O [NEOPLANOCIN A] | 1.1 | 152 µg/mL (≈ 577 µM) | 0.24 µg/mL (≈ 0.912 µM) | 0.26 µg/mL (≈ 0.988 µM)
C[C@H](O)C1=C[C@@H](n2cnc3c(N)ncnc32)[C@H](O)[C@@H]1O | – | > 500 µg/mL | > 100 µg/mL | > 100 µg/mL
C[C@H](O)C1=C[C@@H](n2cnc3c(N)nccc32)[C@H](O)[C@@H]1O | – | > 500 µg/mL | > 100 µg/mL | > 100 µg/mL
C[C@@H](O)C1=C[C@@H](n2cnc3c(N)nccc32)[C@H](O)[C@@H]1O | 12 | > 500 µg/mL | 1 µg/mL (≈ 3.62 µM) | 12 µg/mL (≈ 43.4 µM)
